# Patent US12312343B2, “Rotomeric isomers of 4-alkyl-5-heteroaryl-3H-1,2-dithiole-3-thiones” (ST IP HOLDING AG, priority 2018, dated 2025)
# Experiments:
# [1] = system: ALOX12; assay: Human oxidative stress RT2 Profiler PCR array in HGEPp cells: ALOX12; format: cell-based; conditions: 100 μg/ml, 24 h, RT-PCR ΔΔCt
# Experimental: (§1) RT-PCR was performed on an iCycler.
# [2] = system: SOD1; assay: Human oxidative stress RT2 Profiler PCR array in HGEPp cells: SOD1; format: cell-based; conditions: 100 μg/ml, 24 h, RT-PCR ΔΔCt
# Experimental: as §1
# [3] = system: GPX1; assay: Human oxidative stress RT2 Profiler PCR array in HGEPp cells: GPX1; format: cell-based; conditions: 100 μg/ml, 24 h, RT-PCR ΔΔCt
# Experimental: as §1
# [4] = system: NQO1; assay: Human oxidative stress RT2 Profiler PCR array in HGEPp cells: NQO1; format: cell-based; conditions: 100 μg/ml, 24 h, RT-PCR ΔΔCt
# Experimental: as §1
# [5] = system: GCLC; assay: Human oxidative stress RT2 Profiler PCR array in HGEPp cells: GCLC; format: cell-based; conditions: 100 μg/ml, 24 h, RT-PCR ΔΔCt
# Experimental: as §1
# [6] = system: GSTP1; assay: Human oxidative stress RT2 Profiler PCR array in HGEPp cells: GSTP1; format: cell-based; conditions: 100 μg/ml, 24 h, RT-PCR ΔΔCt
# Experimental: as §1
# [7] = system: GCLM; assay: Human oxidative stress RT2 Profiler PCR array in HGEPp cells: GCLM; format: cell-based; conditions: 100 μg/ml, 24 h, RT-PCR ΔΔCt
# Experimental: as §1
# [8] = system: GTF2i; assay: Human oxidative stress RT2 Profiler PCR array in HGEPp cells: GTF2i; format: cell-based; conditions: 100 μg/ml, 24 h, RT-PCR ΔΔCt
# Experimental: as §1
# [9] = system: PTGS1; assay: Human oxidative stress RT2 Profiler PCR array in HGEPp cells: PTGS1; format: cell-based; conditions: 100 μg/ml, 24 h, RT-PCR ΔΔCt
# Experimental: as §1
# [10] = system: UCP2; assay: Human oxidative stress RT2 Profiler PCR array in HGEPp cells: UCP2; format: cell-based; conditions: 100 μg/ml, 24 h, RT-PCR ΔΔCt
# Experimental: as §1
# [11] = system: HGEPp cells; assay: ROS production in H2O2-induced oxidatively stressed HGEPp cells; conditions: HGEPp cells pretreated 24 hrs at 100 μg/mL, then 0.3 mM H2O2 for 4 h; positive control 139%
# [12] = system: MPO; assay: Human oxidative stress RT2 Profiler PCR array in HGEPp cells: MPO; conditions: 100 μg/ml, 24 h, RT-PCR ΔΔCt
# Experimental: (§2) Pooled primary HGEPp cells were propagated in CnT-Prime epithelial culture medium provided by CellnTec on 100 mm petri dishes coated with 30 mg/ml Type I rat tail collagen (BD Biosciences) diluted in Dulbecco's phosphate-buffered saline (DPBS). HGEPp cells were grown in 12×60 mm Nunc™ Cell Culture dishes at a 2.5×10^4 cells/cm2 density concentration.
# (§3) All dosing solutions contained 0.3% of DMSO which is well below the maximum tolerated DMSO percent of 0.8% for HGEPp cells.
# (§4) The cDNA from above was mixed with the RT2 SYBR Green fluor Mastermix and aliquoted into the wells of the RT2 Profiler PCR Array. RT-PCR was performed on an iCycler. Gene expression was compared using Ct values and the results were calculated using ΔΔ Ct method with normalization to the average expression levels of the five common genes (ACTB, B2M, GAPDH, HPRT, and RPL13A).
# [13] = system: GPX4; assay: Human oxidative stress RT2 Profiler PCR array in HGEPp cells: GPX4; conditions: 100 μg/ml, 24 h, RT-PCR ΔΔCt
# Experimental: as §2, §3, §4
# [14] = system: PRDX2; assay: Human oxidative stress RT2 Profiler PCR array in HGEPp cells: PRDX2; conditions: 100 μg/ml, 24 h, RT-PCR ΔΔCt
# Experimental: as §2, §3, §4
Compound,ALOX12 up regulation relative fold change [1],SOD1 up regulation relative fold change [2],GPX1 up regulation relative fold change [3],NQO1 up regulation relative fold change [4],GCLC up regulation relative fold change [5],GSTP1 up regulation relative fold change [6],GCLM up regulation relative fold change [7],GTF2i down regulation relative fold change [8],PTGS1 down regulation relative fold change [9],UCP2 down regulation relative fold change [10],"ROS level (optical density, Normal = 100% baseline) [11]",MPO up regulation relative fold change [12],GPX4 up regulation relative fold change [13],PRDX2 down regulation relative fold change [14],further results
diethyl dithiophosphate complex of oltipraz [Example 7],6.38 fold,4.85 fold,4.72 fold,3.93 fold,4.41 fold,3.13 fold,3.00 fold,0.29 fold,0.21 fold,0.17 fold,117%,3.42 fold,2.99 fold,0.28 fold,–
thiobenzoic acid complex of oltipraz [Example 11],6.39 fold,4.96 fold,4.82 fold,4.09 fold,4.46 fold,3.07 fold,3.08 fold,0.29 fold,0.22 fold,0.15 fold,116%,3.44 fold,2.94 fold,0.27 fold,–
Diethyl Thiophosphate Complex of Oltipraz [Example 8],6.41 fold,4.86 fold,4.81 fold,3.92 fold,4.39 fold,3.08 fold,3.02 fold,0.29 fold,0.23 fold,0.14 fold,115%,3.47 fold,3.02 fold,0.28 fold,–
acetyl chloride complex of oltipraz [Example 3],6.33 fold,4.24 fold,4.76 fold,3.36 fold,3.27 fold,2.87 fold,2.38 fold,0.32 fold,0.29 fold,0.26 fold,129%,3.10 fold,2.83 fold,0.33 fold,–
"Cc1c(-c2cnccn2)ssc1=S.Cl [Example 1, hydrochloride complex of oltipraz]",6.38 fold,3.86 fold,4.81 fold,3.14 fold,3.35 fold,2.77 fold,2.33 fold,0.33 fold,0.28 fold,0.26 fold,128%,3.22 fold,2.86 fold,0.31 fold,–
"Cc1c(-c2cnccn2)ssc1=S.O=S(=O)(O)CCO [Example 10, isethionic acid complex of oltipraz]",6.48 fold,significantly higher up-regulation,4.86 fold,significantly higher up-regulation,significantly higher up-regulation,significantly higher up-regulation,significantly higher up-regulation,0.31 fold,0.22 fold,0.16 fold,113%,3.39 fold,2.79 fold,0.28 fold,SOD1 up regulation relative fold change ([2]; listed as Ex. 10): 5.23 fold; NQO1 up regulation relative fold change ([4]; listed as Ex. 10): 4.26 fold; GCLC up regulation relative fold change ([5]; listed as Ex. 10): 4.52 fold; GSTP1 up regulation relative fold change ([6]; listed as Ex. 10): 3.18 fold; GCLM up regulation relative fold change ([7]; listed as Ex. 10): 3.11 fold
methyl iodide complex of oltipraz [Example 5],6.04 fold,3.89 fold,4.98 fold,3.15 fold,3.38 fold,2.90 fold,2.27 fold,0.33 fold,0.28 fold,0.29 fold,134%,3.18 fold,2.85 fold,0.32 fold,–
dimethyl phosphate complex of N-methyl oltipraz [Example 9],6.43 fold,significantly higher up-regulation,4.89 fold,significantly higher up-regulation,significantly higher up-regulation,significantly higher up-regulation,significantly higher up-regulation,0.28 fold,0.21 fold,0.15 fold,112%,3.41 fold,2.93 fold,0.27 fold,SOD1 up regulation relative fold change ([2]; listed as Ex. 9): 5.22 fold; NQO1 up regulation relative fold change ([4]; listed as Ex. 9): 4.24 fold; GCLC up regulation relative fold change ([5]; listed as Ex. 9): 4.60 fold; GSTP1 up regulation relative fold change ([6]; listed as Ex. 9): 3.16 fold; GCLM up regulation relative fold change ([7]; listed as Ex. 9): 3.15 fold
n-butyl chloride complex of oltipraz [Example 4],5.82 fold,4.15 fold,4.80 fold,3.34 fold,3.35 fold,2.88 fold,2.38 fold,0.35 fold,0.27 fold,0.25 fold,128%,3.20 fold,2.96 fold,0.32 fold,–
